Assay results: US12060385B2, “Compounds for RNA capping and uses thereof” (GUANGZHOU HENOVCOM BIOSCIENCE CO., LTD., priority 2022, dated 2024)

Columns and labels:
T7 RNA Polymerase = T7 RNA Polymerase (Escherichia phage T7, UniProt P00573); format: biochemical; settings: 20 μL transcription system, Cap1 Analog 4 mM, 37° C. 2 to 3 hours
Method: • 1) A plasmid was linearized and the DNA template was purified. • 2) mRNA was synthesized in vitro with 51 types of capping structures of the present disclosure, or without any cap analogues. CleanCap®AG (3′OMe) (Trilink, N-7413) was applied as positive control group, uncapped mRNA was negative control group, and DNAase/RNase-Free water was a blank control group.
The system was incubated for 2 to 3 hours at 37° C. and digested by TURBO DNase for 15 min LiCl was used to precipitate mRNA for at least 30 min, or overnight, mRNA precipitates were then washed with 75% ethanol. After ethanol was quickly volatilized, mRNA was re-solubilized with RNase-Free water. • 3) The transcribed products were purified and the transcription yields were calculated.

mRNA = test: Capping efficiency of mRNA with different cap analogs by LC-MS; format: biochemical; settings: LC-MS after RNase H cleavage
Method: In a PCR machine, the annealing was performed using the following gradients: • 95° C. for 5 min; 65° C. for 2 min; 55° C. for 2 min; 40° C. for 2 min; 22° C. for 2 min • 5) Pre-treatment of magnetic beads were bound with probes.
100 μL of magnetic beads were placed on a magnetic rack and the preservation solution was removed. 100 μL of 1*BW solution was added, mixed well, and placed on the magnetic rack, and the supernatant was then removed. The washing step was repeated three times. 100 μL of wash A buffer was added, mixed well, and placed on the magnetic rack, and the supernatant was then removed. The washing step was repeated three times. 100 μL of wash B buffer was added, mixed well, and placed on the magnetic rack, and the supernatant was then removed. The washing step was repeated three times. After 120 μL of sample was added, the sample and the magnetic beads solution were incubated for 30 min at room temperature, and they were gently mixed well while incubation. • 6) mRNA was spliced to obtain 5′ end mRNA single stranded sequence and binding with the probe.
20 μL of RNase H (5 U/mL) was added, incubated for 3 hours at 37° C., mixed once every half an hour. 100 μL of 1*BW solution was added, mixed well, and placed on the magnetic rack, and then the supernatant was removed. The washing step was repeated three times. Subsequently, 100 μL of deionized aqueous solution was added, mixed well, and placed on the magnetic rack, and the supernatant was then removed. The washing step was repeated three times. 100 μL of 75% methanol at 80° C. was added, and the mixture was incubated at 80° C. on a heater plate for 3 min, and placed on the magnetic rack, and the supernatant was then pipetted. The sample was dried using an evaporative centrifuge at room temperature for 45 min to 10 μL, and then resuspended in 50 μL of 100 μM EDTA solution in 1% MeOH for LC-MS analysis.
The capping efficiencies of mRNA with different cap analogs were determined by LC-MS, and some compounds of the results were shown in Table 4.

Sequence of T7 RNA Polymerase (P00573 whole entry): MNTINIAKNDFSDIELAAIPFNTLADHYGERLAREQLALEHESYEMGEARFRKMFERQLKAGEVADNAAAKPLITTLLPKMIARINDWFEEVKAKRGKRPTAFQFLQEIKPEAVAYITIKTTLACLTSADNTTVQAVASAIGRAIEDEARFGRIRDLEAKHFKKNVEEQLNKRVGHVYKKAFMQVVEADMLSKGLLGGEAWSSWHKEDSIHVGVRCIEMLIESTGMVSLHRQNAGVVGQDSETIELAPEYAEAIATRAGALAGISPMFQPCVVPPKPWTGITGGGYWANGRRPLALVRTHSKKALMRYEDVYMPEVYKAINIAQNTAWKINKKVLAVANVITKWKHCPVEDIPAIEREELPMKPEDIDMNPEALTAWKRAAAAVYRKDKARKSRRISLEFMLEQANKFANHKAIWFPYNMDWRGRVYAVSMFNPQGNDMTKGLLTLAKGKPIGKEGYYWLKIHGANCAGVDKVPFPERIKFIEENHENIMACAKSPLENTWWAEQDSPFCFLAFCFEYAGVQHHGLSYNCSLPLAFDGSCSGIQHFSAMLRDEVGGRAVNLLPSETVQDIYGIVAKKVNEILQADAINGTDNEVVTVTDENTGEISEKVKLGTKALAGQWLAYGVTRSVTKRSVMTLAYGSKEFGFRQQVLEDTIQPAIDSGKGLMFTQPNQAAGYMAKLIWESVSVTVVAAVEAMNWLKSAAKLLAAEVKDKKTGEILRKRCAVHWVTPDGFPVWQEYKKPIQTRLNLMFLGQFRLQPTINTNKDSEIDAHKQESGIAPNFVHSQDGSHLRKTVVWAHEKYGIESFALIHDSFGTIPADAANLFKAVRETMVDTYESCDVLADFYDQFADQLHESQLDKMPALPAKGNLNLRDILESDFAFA

SMILES	Final product mass obtained from the 20 μL of mRNA transcription system (T7 RNA Polymerase) [µg]	Capping efficiency (mRNA)
CO[C@@H]1[C@H](OP(=O)([O-])OC[C@H]2O[C@@H](n3cnc4c(=O)[nH]c(N)nc43)[C@H](O)[C@@H]2O)[C@@H](COP(=O)(O)OP(=O)(O)OP(=O)(O)OC[C@H]2OC(n3c[n+](C)c4c(=O)[nH]c(N)nc43)[C@H](O)[C@@H]2CC(=O)N(C)C)O[C@H]1n1cnc2c(N)ncnc21 (stereo partly shown) [Compound 4]	78	A (100% > A ≥ 95%)
CO[C@@H]1[C@H](OP(=O)([O-])OC[C@H]2O[C@@H](n3cnc4c(=O)[nH]c(N)nc43)[C@H](O)[C@@H]2O)[C@@H](COP(=O)(O)OP(=O)(O)OP(=O)(O)OC[C@H]2O[C@@H](n3c[n+](C)c4c(=O)[nH]c(N)nc43)[C@H](O)[C@@H]2CNC(C)=O)O[C@H]1n1cnc2c(N)ncnc21 [Compound 6]	103	A (100% > A ≥ 95%)
CCOC[C@H]1[C@@H](O)[C@H](n2c[n+](C)c3c(=O)[nH]c(N)nc32)O[C@@H]1COP(=O)(O)OP(=O)(O)OP(=O)(O)OC[C@H]1O[C@@H](n2cnc3c(N)ncnc32)[C@H](OC)[C@@H]1OP(=O)(O)OC[C@H]1O[C@@H](n2cnc3c(=O)[nH]c(N)nc32)[C@H](O)[C@@H]1O [Compound 139]	116	A (100% > A ≥ 95%)
COCCOC[C@H]1[C@@H](O)[C@H](n2c[n+](C)c3c(=O)[nH]c(N)nc32)O[C@@H]1COP(=O)(O)OP(=O)(O)OP(=O)(O)OC[C@H]1O[C@@H](n2cnc3c(N)ncnc32)[C@H](OC)[C@@H]1OP(=O)(O)OC[C@H]1O[C@@H](n2cnc3c(=O)[nH]c(N)nc32)[C@H](O)[C@@H]1O [Compound 141]	84	A (100% > A ≥ 95%)
CO[C@@H]1[C@H](OP(=O)(O)OC[C@H]2O[C@@H](n3cnc4c(=O)[nH]c(N)nc43)[C@H](O)[C@@H]2O)[C@@H](COP(=O)(O)CP(=O)(O)OP(=O)(O)OC[C@H]2O[C@@H](n3c[n+](C)c4c(=O)[nH]c(N)nc43)[C@H](O)[C@@H]2CNC(C)=O)O[C@H]1n1cnc2c(N)ncnc21 [Compound 329]	110	
CNC(=O)C[C@H]1[C@@H](O)[C@H](n2c[n+](C)c3c(=O)[nH]c(N)nc32)O[C@@H]1COP(=O)(O)OP(=O)(O)OP(=O)(O)OC[C@H]1O[C@@H](n2cnc3c(N)ncnc32)[C@H](OC)[C@@H]1OP(=O)(O)OC[C@H]1O[C@@H](n2cnc3c(=O)[nH]c(N)nc32)[C@H](O)[C@@H]1O [Compound 393]	95	A (100% > A ≥ 95%)
CNC(=O)C[C@H]1[C@@H](O)[C@H](n2c[n+](C)c3c(=O)[nH]c(N)nc32)O[C@@H]1COP(=O)(O)OP(=O)(O)OP(=O)(O)OC[C@H]1O[C@@H](n2cnc3c(N)ncnc32)[C@H](OC)[C@@H]1OP(=O)(O)OC[C@H]1O[C@@H](n2ccc(=O)[nH]c2=O)[C@H](O)[C@@H]1O [Compound 394]	107	
CNC(=O)CC[C@H]1[C@@H](O)[C@H](n2c[n+](C)c3c(=O)[nH]c(N)nc32)O[C@@H]1COP(=O)(O)OP(=O)(O)OP(=O)(O)OC[C@H]1O[C@@H](n2cnc3c(N)ncnc32)[C@H](OC)[C@@H]1OP(=O)(O)OC[C@H]1O[C@@H](n2cnc3c(=O)[nH]c(N)nc32)[C@H](O)[C@@H]1O [Compound 415]	108	
CO[C@@H]1[C@H](OP(=O)(O)OC[C@H]2O[C@@H](n3cnc4c(=O)[nH]c(N)nc43)[C@H](O)[C@@H]2O)[C@@H](COP(=O)(O)CP(=O)(O)OP(=O)(O)OC[C@H]2O[C@@H](n3c[n+](C)c4c(=O)[nH]c(N)nc43)[C@H](O)[C@@H]2CC(=O)N(C)C)O[C@H]1n1cnc2c(N)ncnc21 [Compound 421]	98	
CO[C@@H]1[C@H](OP(=O)(O)OC[C@H]2O[C@@H](n3cnc4c(=O)[nH]c(N)nc43)[C@H](O)[C@@H]2O)[C@@H](COP(=O)(O)OP(=O)(O)OP(=O)(O)OP(=O)(O)OC[C@H]2O[C@@H](n3c[n+](C)c4c(=O)[nH]c(N)nc43)[C@H](O)[C@@H]2CC(=O)N(C)C)O[C@H]1n1cnc2c(N)ncnc21 [Compound 437]	114	
CO[C@@H]1[C@H](OP(=O)([O-])OC[C@H]2O[C@@H](n3cnc4c(=O)[nH]c(N)nc43)[C@H](O)[C@@H]2O)[C@@H](CSP(=O)(O)OP(=O)(O)OP(=O)(O)OC[C@H]2O[C@@H](n3c[n+](C)c4c(=O)[nH]c(N)nc43)[C@H](O)[C@@H]2CNC(C)=O)O[C@H]1n1cnc2c(N)ncnc21 [Compound 561]	108	
CNC(=O)OC[C@H]1[C@@H](O)[C@H](n2c[n+](C)c3c(=O)[nH]c(N)nc32)O[C@@H]1COP(=O)(O)OP(=O)(O)OP(=O)(O)OC[C@H]1O[C@@H](n2cnc3c(N)ncnc32)[C@H](OC)[C@@H]1OP(=O)([O-])OC[C@H]1O[C@@H](n2cnc3c(=O)[nH]c(N)nc32)[C@H](O)[C@@H]1O [Compound 631]	105	
CO[C@@H]1[C@H](OP(=O)([O-])OC[C@H]2O[C@@H](n3cnc4c(=O)[nH]c(N)nc43)[C@H](O)[C@@H]2O)[C@@H](COP(=O)(O)OP(=O)(O)OP(=O)(O)OC[C@H]2O[C@@H](n3c[n+](C)c4c(=O)[nH]c(N)nc43)[C@H](O)[C@@H]2CCN2CCOCC2)O[C@H]1n1cnc2c(N)ncnc21 [Compound 633]	100	B (95% > B ≥ 90%)
CO[C@@H]1[C@H](OP(=O)([O-])OC[C@H]2O[C@@H](n3cnc4c(=O)[nH]c(N)nc43)[C@H](O)[C@@H]2O)[C@@H](COP(=O)(O)OP(=O)(O)OP(=O)(O)OC[C@H]2O[C@@H](n3c[n+](C)c4c(=O)[nH]c(N)nc43)[C@H](O)[C@@H]2CN=[N+]=[N-])O[C@H]1n1cnc2c(N)ncnc21 [Compound 635]	118	
COC[C@H]1[C@@H](OC)[C@H](n2c[n+](C)c3c(=O)[nH]c(N)nc32)O[C@@H]1COP(=O)(O)OP(=O)(O)OP(=O)(O)OC[C@H]1O[C@@H](n2cnc3c(N)ncnc32)[C@H](OC)[C@@H]1OP(=O)(O)OC[C@H]1O[C@@H](n2cnc3c(=O)[nH]c(N)nc32)[C@H](O)[C@@H]1O [Compound 637]	88	
CO[C@@H]1[C@H](OP(=O)(O)OC[C@H]2O[C@@H](n3cnc4c(=O)[nH]c(N)nc43)[C@H](O)[C@@H]2O)[C@@H](COP(=O)(O)OP(=O)(O)OP(=O)(O)OC[C@H]2O[C@@H](n3c[n+](C)c4c(=O)[nH]c(N)nc43)[C@H](O)[C@@H]2CNC(=O)N(C)C)O[C@H]1n1cnc2c(N)ncnc21 [Compound 639]	94	
CO[C@@H]1[C@H](CNC(C)=O)[C@@H](COP(=O)(O)OP(=O)(O)OP(=O)(O)OC[C@H]2O[C@@H](n3cnc4c(N)ncnc43)[C@H](OC)[C@@H]2OP(=O)(O)OC[C@H]2O[C@@H](n3cnc4c(=O)[nH]c(N)nc43)[C@H](O)[C@@H]2O)O[C@H]1n1c[n+](C)c2c(=O)[nH]c(N)nc21 [Compound 641]	89	
CCCCCCNC(=O)C[C@H]1[C@@H](O)[C@H](n2c[n+](C)c3c(=O)[nH]c(N)nc32)O[C@@H]1COP(=O)(O)OP(=O)(O)OP(=O)(O)OC[C@H]1O[C@@H](n2cnc3c(N)ncnc32)[C@H](OC)[C@@H]1OP(=O)([O-])OC[C@H]1O[C@@H](n2cnc3c(=O)[nH]c(N)nc32)[C@H](O)[C@@H]1O [Compound 643]	121	
CNC(=O)C[C@H]1[C@@H](OC)[C@H](n2c[n+](C)c3c(=O)[nH]c(N)nc32)O[C@@H]1COP(=O)(O)OP(=O)(O)OP(=O)(O)OC[C@H]1O[C@@H](n2cnc3c(N)ncnc32)[C@H](OC)[C@@H]1OP(=O)(O)OC[C@H]1O[C@@H](n2cnc3c(=O)[nH]c(N)nc32)[C@H](O)[C@@H]1O [Compound 645]	116	
